Article doi:10.1101/2020.10.06.328336v1 (biorxiv, 2020)

What was measured:
[1] = molecular target: T1, SARS-CoV-2 RdRp complex (nsp12-nsp7-nsp8) (Severe acute respiratory syndrome coronavirus 2, UniProt P0DTD1); experiment: biochemical
[2] = molecular target: T1, SARS-CoV-2 RdRp complex (nsp12-nsp7-nsp8); experiment: […]; assay type: biochemical

Structure (SMILES)	IC50 [1] [µM]	IC50 [2] [µM]
O=C(Nc1cc(C(=O)Nc2ccc(S(=O)(=O)O)cc2)cc(C(=O)Nc2ccc(S(=O)(=O)O)cc2)c1)Nc1cc(C(=O)Nc2ccc(S(=O)(=O)O)cc2)cc(C(=O)Nc2ccc(S(=O)(=O)O)cc2)c1 [NF110]	0.58 ± 0.04	
O=C(Nc1cccc(C(=O)Nc2cc(C(=O)Nc3ccc(S(=O)(=O)O)c4cc(S(=O)(=O)O)cc(S(=O)(=O)O)c34)ccc2F)c1)Nc1cccc(C(=O)Nc2cc(C(=O)Nc3ccc(S(=O)(=O)O)c4cc(S(=O)(=O)O)cc(S(=O)(=O)O)c34)ccc2F)c1 [NF157]	0.05	
O=C(Nc1ccc(C(=O)Nc2ccc(C(=O)Nc3ccc(S(=O)(=O)O)c4cc(S(=O)(=O)O)cc(S(=O)(=O)O)c34)cc2)cc1)Nc1ccc(C(=O)Nc2ccc(C(=O)Nc3ccc(S(=O)(=O)O)c4cc(S(=O)(=O)O)cc(S(=O)(=O)O)c34)cc2)cc1 [NF279]	0.05	
O=C(Nc1cc(C(=O)Nc2ccc(S(=O)(=O)O)cc2S(=O)(=O)O)cc(C(=O)Nc2ccc(S(=O)(=O)O)cc2S(=O)(=O)O)c1)Nc1cc(C(=O)Nc2ccc(S(=O)(=O)O)cc2S(=O)(=O)O)cc(C(=O)Nc2ccc(S(=O)(=O)O)cc2S(=O)(=O)O)c1 [NF449]	0.05	
Cc1ccc(C(=O)Nc2ccc(S(=O)(=O)O)c3cc(S(=O)(=O)O)cc(S(=O)(=O)O)c23)cc1NC(=O)c1cccc(NC(=O)Nc2cccc(C(=O)Nc3cc(C(=O)Nc4ccc(S(=O)(=O)O)c5cc(S(=O)(=O)O)cc(S(=O)(=O)O)c45)ccc3C)c2)c1 [suramin]		0.26
